Source: ChEMBL document CHEMBL5154879, “Induction of Genes Implicated in Stress Response and Autophagy by a Novel Quinolin-8-yl-nicotinamide QN523 in Pancreatic Cancer” (J Med Chem, 2022)

Assays:
MIA PaCa-2 [1] = experiment: Cytotoxicity against human MIA PaCa-2 cells assessed as inhibition of cell growth incubated for 72 hrs by MTT assay; type: functional, cell-based; conditions: MIA PaCa-2, 72 h
BXPC-3 = experiment: Cytotoxicity against human BXPC-3 cells assessed as inhibition of cell growth incubated for 72 hrs by MTT assay; type: functional, cell-based; conditions: BXPC-3, 72 h
PANC-1 = experiment: Cytotoxicity against human PANC-1 cells assessed as inhibition of cell growth incubated for 72 hrs by MTT assay; type: functional, cell-based; conditions: PANC-1, 72 h
[2] = Cytotoxicity against human HPDE cells assessed as inhibition of cell growth incubated for 72 hrs by MTT assay; type: toxicity, cell-based
MIA PaCa-2 [3] = experiment: Induction of apoptosis in human MIA PaCa-2 cells assessed as necrotic cells at 0.1 uM incubated for 24 hrs by Annexin V-FITC/PI staining based flow cytometry analysis (reference value: 2.7%); type: functional
MIA PaCa-2 [4] = experiment: Induction of apoptosis in human MIA PaCa-2 cells assessed as live cells at 0.1 uM incubated for 48 hrs by Annexin V-FITC/PI staining based flow cytometry analysis (reference value: 96.3%); type: functional
MIA PaCa-2 [5] = experiment: Induction of apoptosis in human MIA PaCa-2 cells assessed as late apoptotic cells at 0.1 uM incubated for 48 hrs by Annexin V-FITC/PI staining based flow cytometry analysis (reference value: 0.8%); type: functional
MIA PaCa-2 [6] = experiment: Induction of cell cycle arrest in human MIA PaCa-2 cells assessed as accumulation of cells at S phase at 0.1 uM incubated for 24 hrs by RNase/propidium iodide staining based flow cytometry analysis (Rvb =27.6 %); type: functional
MIA PaCa-2 [7] = experiment: Induction of apoptosis in human MIA PaCa-2 cells assessed as necrotic cells at 0.5 uM incubated for 48 hrs by Annexin V-FITC/PI staining based flow cytometry analysis (reference value: 1.07%); type: functional
MIA PaCa-2 [8] = experiment: Induction of apoptosis in human MIA PaCa-2 cells assessed as viable cells at 0.5 uM incubated for 48 hrs by Annexin V-FITC/PI staining based flow cytometry analysis (reference value: 96.3%); type: functional; conditions: read-out: Activity
MIA PaCa-2 [9] = experiment: Induction of apoptosis in human MIA PaCa-2 cells assessed as live cells at 0.5 uM incubated for 24 hrs by Annexin V-FITC/PI staining based flow cytometry analysis (reference value: 90.2%); type: functional
MIA PaCa-2 [10] = experiment: Induction of apoptosis in human MIA PaCa-2 cells assessed as early apoptotic cells at 0.1 uM incubated for 24 hrs by Annexin V-FITC/PI staining based flow cytometry analysis (reference value: 5.1%); type: functional
MIA PaCa-2 [11] = experiment: Induction of cell cycle arrest in human MIA PaCa-2 cells assessed as accumulation of cells in G0/G1 phase at 0.1 uM incubated for 48 hrs by RNase/propidium iodide staining based flow cytometry analysis (reference value: 70.4%); type: functional
MIA PaCa-2 [12] = experiment: Induction of apoptosis in human MIA PaCa-2 cells assessed as late apoptotic cells at 0.5 uM incubated for 48 hrs by Annexin V-FITC/PI staining based flow cytometry analysis (reference value: 0.8%); type: functional
MIA PaCa-2 [13] = experiment: Induction of cell cycle arrest in human MIA PaCa-2 cells assessed as accumulation of cells at S phase at 0.1 uM incubated for 48 hrs by RNase/propidium iodide staining based flow cytometry analysis (Rvb =26.9 %); type: functional
[14] = Cytotoxicity against HEK293 cells assessed as inhibition of cell growth incubated for 72 hrs by MTT assay; type: toxicity, cell-based; conditions: human
MIA PaCa-2 [15] = experiment: Induction of apoptosis in human MIA PaCa-2 cells assessed as early apoptotic cells at 0.5 uM incubated for 48 hrs by Annexin V-FITC/PI staining based flow cytometry analysis (reference value: 1.8%); type: functional
MIA PaCa-2 [16] = experiment: Induction of apoptosis in human MIA PaCa-2 cells assessed as early apoptotic cells at 0.5 uM incubated for 24 hrs by Annexin V-FITC/PI staining based flow cytometry analysis (reference value: 5.1%); type: functional
MIA PaCa-2 [17] = experiment: Induction of cell cycle arrest in human MIA PaCa-2 cells assessed as accumulation of cells in G0/G1 phase at 0.1 uM incubated for 24 hrs by RNase/propidium iodide staining based flow cytometry analysis (reference value: 64.3%); type: functional
MIA PaCa-2 [18] = experiment: Induction of apoptosis in human MIA PaCa-2 cells assessed as necrotic cells at 0.1 uM incubated for 48 hrs by Annexin V-FITC/PI staining based flow cytometry analysis (reference value: 1.07%); type: functional
MIA PaCa-2 [19] = experiment: Induction of apoptosis in human MIA PaCa-2 cells assessed as viable cells at 0.1 uM incubated for 24 hrs by Annexin V-FITC/PI staining based flow cytometry analysis (reference value: 90.2%); type: functional; conditions: read-out: Activity
MIA PaCa-2 [20] = experiment: Induction of cell cycle arrest in human MIA PaCa-2 cells assessed as accumulation of cells in G2/M phase at 0.1 uM incubated for 48 hrs by RNase/propidium iodide staining based flow cytometry analysis (reference value: 2.71%); type: functional
[21] = Cytotoxicity against human HFF-1 cells assessed as inhibition of cell growth incubated for 72 hrs by MTT assay; type: toxicity, cell-based
MIA PaCa-2 [22] = experiment: Induction of apoptosis in human MIA PaCa-2 cells assessed as late apoptotic cells at 0.5 uM incubated for 24 hrs by Annexin V-FITC/PI staining based flow cytometry analysis (reference value: 2.04%); type: functional
MIA PaCa-2 [23] = experiment: Induction of apoptosis in human MIA PaCa-2 cells assessed as late apoptotic cells at 0.1 uM incubated for 24 hrs by Annexin V-FITC/PI staining based flow cytometry analysis (reference value: 2.04%); type: functional
MIA PaCa-2 [24] = experiment: Induction of apoptosis in human MIA PaCa-2 cells assessed as necrotic cells at 0.5 uM incubated for 24 hrs by Annexin V-FITC/PI staining based flow cytometry analysis (reference value: 2.7%); type: functional
MIA PaCa-2 [25] = experiment: Induction of apoptosis in human MIA PaCa-2 cells assessed as early apoptotic cells at 0.1 uM incubated for 48 hrs by Annexin V-FITC/PI staining based flow cytometry analysis (reference value: 1.8%); type: functional
MIA PaCa-2 [26] = experiment: Induction of cell cycle arrest in human MIA PaCa-2 cells assessed as accumulation of cells in G2/M phase at 0.1 uM incubated for 24 hrs by RNase/propidium iodide staining based flow cytometry analysis (reference value: 8.11%); type: functional

## Cc1ccc(C(=O)Nc2cccc3cccnc23)cn1
MIA PaCa-2 [1]
  IC50: > 10 µM
BXPC-3
  IC50: > 10 µM
PANC-1
  IC50: > 10 µM

## O=C(Nc1cc(Cl)cc2cccnc12)c1ncccn1
MIA PaCa-2 [1]
  IC50: 0.8 µM
BXPC-3
  IC50: > 10 µM
PANC-1
  IC50: 4.67 µM

## O=C(Nc1cccc2cccnc12)c1ccc(Br)cn1
MIA PaCa-2 [1]
  IC50: 1.8 µM
BXPC-3
  IC50: > 10 µM
PANC-1
  IC50: 4 µM

## CC(C)(C)OC(=O)NCCOc1cc(NC(=O)c2ncccn2)c2ncccc2c1
MIA PaCa-2 [1]
  IC50: > 10 µM
BXPC-3
  IC50: > 10 µM
PANC-1
  IC50: > 10 µM

## Cc1cnc(C(=O)Nc2cc(OCCN3CCOCC3)cc3cccnc23)cn1
MIA PaCa-2 [1]
  IC50: 0.73 µM
BXPC-3
  IC50: 2 µM
PANC-1
  IC50: 3.5 µM

## Cc1ccc2cccc(NC(=O)c3cnccn3)c2n1
MIA PaCa-2 [1]
  IC50: > 10 µM
BXPC-3
  IC50: > 10 µM
PANC-1
  IC50: > 10 µM

## Cc1cnc(C(=O)Nc2cc(F)cc3cccnc23)cn1
MIA PaCa-2 [1]
  IC50: 0.31 µM
BXPC-3
  IC50: > 10 µM
PANC-1
  IC50: 2.1 µM

## O=C(Nc1cccc2cccnc12)c1cccc(Br)n1
MIA PaCa-2 [1]
  IC50: > 10 µM
BXPC-3
  IC50: > 10 µM
PANC-1
  IC50: > 10 µM

## CN(C)Cc1ccc2cccc(NC(=O)c3cnccn3)c2n1
MIA PaCa-2 [1]
  IC50: > 10 µM
BXPC-3
  IC50: > 10 µM
PANC-1
  IC50: > 10 µM

## Cc1cnc(C(=O)Nc2cccc3ncccc23)cn1
MIA PaCa-2 [1]
  IC50: > 10 µM
BXPC-3
  IC50: > 10 µM
PANC-1
  IC50: > 10 µM

## COc1cc(NC(=O)c2ncccn2)c2ncccc2c1
MIA PaCa-2 [1]
  IC50: 1.3 µM
BXPC-3
  IC50: > 10 µM
PANC-1
  IC50: 9 µM

## Cc1cnc(C(=O)Nc2cc(OCCN)cc3cccnc23)cn1
MIA PaCa-2 [1]
  IC50: > 10 µM
BXPC-3
  IC50: > 10 µM
PANC-1
  IC50: > 10 µM

## CC(C)(C)OC(=O)C1CCN(CCOc2cc(NC(=O)c3cnccn3)c3ncccc3c2)CC1
MIA PaCa-2 [1]
  IC50: 3.67 µM
BXPC-3
  IC50: 3.33 µM
PANC-1
  IC50: 9.5 µM

## Cc1cnc(C(=O)Nc2ccc(Br)c3cccnc23)cn1
MIA PaCa-2 [1]
  IC50: 2.2 µM
BXPC-3
  IC50: > 10 µM
PANC-1
  IC50: 6.8 µM

## NCCOc1cc(NC(=O)c2ncccn2)c2ncccc2c1
MIA PaCa-2 [1]
  IC50: > 10 µM
BXPC-3
  IC50: > 10 µM
PANC-1
  IC50: > 10 µM

## CC(C)(C)OC(=O)N1CCC(CCOc2cc(NC(=O)c3ncccn3)c3ncccc3c2)CC1
MIA PaCa-2 [1]
  IC50: > 10 µM
BXPC-3
  IC50: > 10 µM
PANC-1
  IC50: > 10 µM

## O=C(Nc1cc(F)cc2cccnc12)c1ncccn1
MIA PaCa-2 [1]
  IC50: 0.3 µM
BXPC-3
  IC50: > 10 µM
PANC-1
  IC50: 5.3 µM

## O=C(Nc1cccc2cccnc12)c1ncccn1
MIA PaCa-2 [1]
  IC50: 0.33 µM
BXPC-3
  IC50: > 10 µM
PANC-1
  IC50: > 10 µM

## O=C(Nc1cc(OCCF)cc2cccnc12)c1cnccn1
MIA PaCa-2 [1]
  IC50: 0.37 µM
BXPC-3
  IC50: 4.33 µM
PANC-1
  IC50: 0.53 µM

## Cc1ccc2cccc(NC(=O)c3ncccn3)c2n1
MIA PaCa-2 [1]
  IC50: > 10 µM
BXPC-3
  IC50: > 10 µM
PANC-1
  IC50: > 10 µM

## Nc1ccn([C@@H]2O[C@H](CO)[C@@H](O)C2(F)F)c(=O)n1 [GEMCITABINE]
[2]
  IC50 at 72 h: 0.001 µM
MIA PaCa-2 [3]
  Activity: 0.8%
MIA PaCa-2 [4]
  Activity: 93.7%
MIA PaCa-2 [5]
  Activity: 2.01%
MIA PaCa-2 [6]
  Activity: 78.03%
MIA PaCa-2 [7]
  Activity: 2.6%
MIA PaCa-2 [8]
  viability at 0.5 µM: 90%
MIA PaCa-2 [9]
  Activity: 87.2%
MIA PaCa-2 [10]
  Activity: 16.1%
MIA PaCa-2 [11]
  Activity: 10.8%
MIA PaCa-2 [12]
  Activity: 2.3%
MIA PaCa-2 [13]
  Activity: 89.3%
[14]
  IC50 at 72 h: 0.05 µM
MIA PaCa-2 [15]
  Activity: 5.2%
MIA PaCa-2 [16]
  Activity: 7.6%
MIA PaCa-2 [17]
  Activity: 21.04%
MIA PaCa-2 [18]
  Activity: 2.1%
MIA PaCa-2 [19]
  viability at 0.1 µM: 79.1%
MIA PaCa-2 [20]
  Activity: 0%
[21]
  IC50 at 72 h: 14.4 µM
MIA PaCa-2 [22]
  Activity: 2.8%
MIA PaCa-2 [23]
  Activity: 4%
PANC-1
  IC50: 0.2 µM
MIA PaCa-2 [24]
  Activity: 2.4%
MIA PaCa-2 [25]
  Activity: 2.2%
MIA PaCa-2 [26]
  Activity: 0.93%

## NCCOc1cc(NC(=O)c2cnccn2)c2ncccc2c1
MIA PaCa-2 [1]
  IC50: > 10 µM
BXPC-3
  IC50: > 10 µM
PANC-1
  IC50: > 10 µM

## Cc1cnc(C(=O)Nc2cccc3cccnc23)cn1
MIA PaCa-2 [1]
  IC50: 0.5 µM
BXPC-3
  IC50: 9.4 µM
PANC-1
  IC50: 1.8 µM
